Values of other authors, collected in patent US10730863B2, “Bridged bicyclic compounds as farnesoid X receptor modulators” (BRISTOL-MYERS SQUIBB COMPANY, priority 2017, dated 2020).

What was measured:
[1] = 6-week trial, T2DM patients with NAFLD; cited from earlier work
[2] = 72-week trial, patients with NASH, liver biopsies; cited from earlier work

Which results are given for `CC[C@H]1[C@@H](O)[C@@H]2[C@H](CC[C@]3(C)[C@@H]([C@H](C)CCC(=O)O)CC[C@@H]23)[C@@]2(C)CC[C@@H](O)C[C@@H]12` [OCA, obeticholic acid]?
body weight [1]: reduced; insulin sensitivity [1]: statistically significantly improved; hepatic steatosis, lobular inflammation, hepatocyte ballooning, and fibrosis [2]: statistically significantly improved
